Measurements taken from article PMC9414910, “Optimized ^68Ga-Labeled Urea-Based PSMA-Targeted PET Tracers for Prostate Cancer” (Pharmaceuticals, 2022).

Legend:
22Rv1 cells (mild PSMA+) = test: Cell uptake / binding in 22Rv1 cells; format: cell-based, human; details: 60 min incubation, 37 °C
Description: Cell lines were kindly provided by the stem cell bank of the Chinese Academy of Sciences. The human prostate cancer epithelial cell lines 22Rv1 (mild PSMA+) and PC-3 (with no PSMA receptor) were used to evaluate the specific cell-binding affinity of the radiotracers, and the results were expressed as percentages of injected activity, IA%/10^6.
Cell Lines and Culture Condition
Cell lines were kindly provided by the stem cell bank, the Chinese Academy of Sciences. The human prostate cancer cell lines 22Rv1 ( mild PSMA positive) and PC3 (PSMA negative) were cultured in RPMI 1640 medium or F12K medium (CORNING, America), supplemented with 10% Fetal Bovine Serum
(GIBCO, The Netherlands) and 1% penicillin-streptomycin (CORNING, America) in a humidified incubator at 37 °C under 5% CO2. Each cell line was passaged when it was at around 80-90% confluence, and harvested using trypsin-ethylenediaminetetraacetic acid (trypsin-EDTA; 0.25% trypsin, 0.02% EDTA, all from KeyGEN BioTECH).
Cells were seeded separately in 24 well plates (1 x 10^5 cells in 1 mL medium/well) and incubated overnight, the medium was changed 2 h before the experiment. For the binding experiments, cells were incubated with novel […]
min, 30 min and 60 min (6 wells/time point). After incubation, the medium was removed and the cells were washed twice with ice-cold phosphate-buffered saline (0.5 mL). Finally, the cells were lysed by NaOH (0.5 M, 0.5 mL). Coincubation of 2-(phosphonomethyl) pentane-1,5-dioic acid […]
(2-PMPA) solution (2 μg/well) and each radiotracer for 60 min was conducted as the blocking experiment. The radioactivity of cells was measured by a γ-counter. The studies were performed in triplicate and the results were reported as the percentage injected activity (IA%/10^6 cells). […]

22Rv1 tumor-bearing mice = test: Biodistribution in 22Rv1 tumor-bearing mice; details: for Uptake Blood, Mean / Uptake Bone, Mean / Uptake Heart, Mean / Uptake Kidney, Mean / Uptake Liver, Mean / Uptake Lung, Mean / Uptake Muscle, Mean / Uptake Spleen, Mean / Uptake Tumor (22Rv1), Mean: 0.74 MBq, n = 3; for Clearance profile in the kidneys: within 60 min p.i.
Procedure: (§1) The animal studies were approved by the institutional animal care and use committee of the Chinese PLA General Hospital. Healthy male ICR mice were injected with either a novel radiotracer (37 MBq in 150 μL) or saline (150 μL) for the radiotoxicity evaluation. […] Biodistribution and micro-PET studies were performed on 22Rv1 and PC-3 xenograft models, and 2-PMPA was used as the PSMA blocker (all details are shown in the Supplementary Materials).
BALB/c nude mice (male, 4-6 weeks) were inoculated subcutaneously with […]
100 mm3, the mice underwent biodistribution study and Micro-PET imaging.
The 22Rv1 tumor-bearing mice were injected with each novel radiotracer or […]
[…] Mice were sacrificed at different time points p.i. (10 min, 30 min, 60 min), tumors and interested organs were harvested, weighed and measured by a γ-counter, the results were expressed as the percentage of injected dose per gram (ID%/g).
Table S1. Uptake values for ex vivo tissues of [ 68Ga]Ga-PSMA-Q (0.74 MBq/mice) in 22Rv1 tumor-bearing mice (10, 30 and 60 min p.i., n = 3/time point).

22Rv1 tumors = test: Micro-PET imaging in 22Rv1 tumor-bearing mice; format: in vivo; details: 60 min p.i.; for SUVmax of tumor: 22Rv1 tumor, 7.4 MBq
Procedure: as §1
Table S9. Tumor-to-mu scle (T/M) ratio and tumor- to-kidney (T/K) rati o of radiotracers at 60 min p.i.
The Mice bearing 22Rv1 and PC-3 (n = 3/group) xenograft tumors were […]
Co-injection with 2-PMPA (50 μ g) and each novel tracer (7.4 MBq in 150 μL) was used for blocking. Then the mice were anesthetized with 3% (v/v) isoflurane and underwent Micro-PET scans with continuous 1% (v/v) isoflurane. The images were acquired at 60 min p.i.. In comparison, […]
into another group of mice (n = 3), and Micro-PET schedule was performed as […]
Imaging was performed on a Super Nova PET/CT scanner using a 100-mm-transaxial field of view for PET and 110-mm for CT.
Three-dimensional ordered-subsets expectation maximization reconstruction

[1] = Partition coefficient, octanol–water system; format: physicochemical; details: octanol–water (v/v = 1:1), n = 3
Procedure: The partition coefficient of each novel radiotracer was determined using an octanol–water system (v/v = 1:1). The in vitro stability was determined using two systems (PBS and 5% BSA). The Ki value was measured by the NAALADase assay. The 22Rv1 and PC-3 cell lines were used for the cell-binding study and establishment of the tumor-bearing model (detailed information is shown in the Supplementary Materials).
PBS) and reported as log p ± SD. […]

[2] = Blood pharmacokinetics in male ICR mice; format: in vivo; details: 7.4 MBq i.v., two-compartment model
Procedure: Injection of novel radiotracers or [68Ga]Ga-PSMA-617 or [68Ga]Ga-PSMA-11 […]
mice (5 mice/group), and the blood sample (5 μL) of each mouse was collected by cutting down the tail end at different time points post injection. The radioactivity of blood samples were measured by a γ-counter and the pharmacokinetics data was calculated using the WinNonlin software.
Figure S3. Time-activity curves of the blood samplesafter injection of 7.4 MBq of [68Ga]Ga-PSMA-4PY (A), [68Ga]Ga-PSMA-Q (B),[68Ga]Ga-PSMA-P (C), [68Ga]Ga-PSMA-617 (D), [68Ga]Ga-PSMA-11 (E), [68Ga]Ga-PSMA-Q-1 (F), [68Ga]Ga-PSMA-Q-2 (G) and [68Ga]Ga-PSMA-Q-3 (H).
(1 picture or pasted object on this page, not shown here)

[3] = biodistribution, 22Rv1 tumor-bearing mice, 60 min p.i.

Compound	Uptake in 22Rv1 cells (22Rv1 cells (mild PSMA+))	Uptake Blood, Mean (22Rv1 tumor-bearing mice; 10 min p.i.)	Uptake Bone, Mean (22Rv1 tumor-bearing mice; 10 min p.i.)	Uptake Heart, Mean (22Rv1 tumor-bearing mice; 10 min p.i.)	Uptake Kidney, Mean (22Rv1 tumor-bearing mice; 10 min p.i.)	Uptake Liver, Mean (22Rv1 tumor-bearing mice; 10 min p.i.)	Uptake Lung, Mean (22Rv1 tumor-bearing mice; 10 min p.i.)	Uptake Muscle, Mean (22Rv1 tumor-bearing mice; 10 min p.i.)	Uptake Spleen, Mean (22Rv1 tumor-bearing mice; 10 min p.i.)	Uptake Tumor (22Rv1), Mean (22Rv1 tumor-bearing mice; 10 min p.i.)	Uptake Blood, Mean (22Rv1 tumor-bearing mice; 30 min p.i.)	Uptake Bone, Mean (22Rv1 tumor-bearing mice; 30 min p.i.)	Uptake Kidney, Mean (22Rv1 tumor-bearing mice; 30 min p.i.)	Uptake Liver, Mean (22Rv1 tumor-bearing mice; 30 min p.i.)	Uptake Lung, Mean (22Rv1 tumor-bearing mice; 30 min p.i.)	Uptake Muscle, Mean (22Rv1 tumor-bearing mice; 30 min p.i.)	Uptake Spleen, Mean (22Rv1 tumor-bearing mice; 30 min p.i.)	Uptake Tumor (22Rv1), Mean (22Rv1 tumor-bearing mice; 30 min p.i.)	Uptake Blood, Mean (22Rv1 tumor-bearing mice; 60 min p.i.)	Uptake Bone, Mean (22Rv1 tumor-bearing mice; 60 min p.i.)	also measured
O=C([O-])CN1CCN(CC(=O)[O-])CCN(CC(=O)NCC2CCC(C(=O)NC(Cc3ccncc3)C(=O)NCCCCC(NC(=O)NC(CCC(=O)O)C(=O)O)C(=O)O)CC2)CCN(CC(=O)O)CC1.[68Ga+3] (stereo not shown) [[^68Ga]Ga-PSMA-4PY]	3.01 ± 0.47 IA%/10^6	1.68 ID%/g	0.56 ID%/g	1.87 ID%/g	2.15 ID%/g	1.53 ID%/g	0.83 ID%/g	0.67 ID%/g	0.59 ID%/g	1.56 ID%/g	0.68 ID%/g	0.28 ID%/g	2.08 ID%/g	0.78 ID%/g	0.50 ID%/g	0.31 ID%/g	0.47 ID%/g	1.83 ID%/g	0.21 ID%/g	0.21 ID%/g	Uptake Heart, Mean (22Rv1 tumor-bearing mice; 30 min p.i.): 0.86 ID%/g; Uptake Heart, Mean (22Rv1 tumor-bearing mice; 60 min p.i.): 0.58 ID%/g; Uptake Liver, Mean (22Rv1 tumor-bearing mice; 60 min p.i.): 0.47 ID%/g; Uptake Lung, Mean (22Rv1 tumor-bearing mice; 60 min p.i.): 0.25 ID%/g; Uptake Muscle, Mean (22Rv1 tumor-bearing mice; 60 min p.i.): 0.14 ID%/g; Uptake Spleen, Mean (22Rv1 tumor-bearing mice; 60 min p.i.): 0.33 ID%/g; Uptake Tumor (22Rv1), Mean (22Rv1 tumor-bearing mice; 60 min p.i.): 2.15 ID%/g; Uptake Tumor (22Rv1), Mean (22Rv1 tumor-bearing mice; 60 min p.i., listed as [^68Ga]Ga-PSMA-Q-4PY): 2.15 ± 0.46 ID%/g; Clearance profile in the kidneys (22Rv1 tumor-bearing mice): remained relatively stable; SUVmax of tumor (22Rv1 tumors): 0.69 ± 0.26; Log p pH = 7.4 [1]: −3.49 ± 0.01; Elimination half-life [2]: 15.15 ± 0.32 min
O=C([O-])CN1CCN(CC(=O)[O-])CCN(CC(=O)NCC2CCC(C(=O)NC(Cc3ccc4ccccc4c3)C(=O)NCCCCC(NC(=O)NC(CCC(=O)O)C(=O)O)C(=O)O)CC2)CCN(CC(=O)O)CC1.[68Ga+3] (stereo not shown) [[^68Ga]Ga-PSMA-617, reference compound]	4.01 ± 0.42 IA%/10^6	2.21 ID%/g	1.17 ID%/g	2.11 ID%/g	16.30 ID%/g	1.89 ID%/g	1.40 ID%/g	0.87 ID%/g	2.11 ID%/g	2.10 ID%/g	0.58 ID%/g	0.38 ID%/g	25.77 ID%/g	1.13 ID%/g	0.95 ID%/g	0.31 ID%/g	1.31 ID%/g	3.36 ID%/g	0.33 ID%/g	0.29 ID%/g	Uptake Heart, Mean (22Rv1 tumor-bearing mice; 30 min p.i.): 1.20 ID%/g; Uptake Heart, Mean (22Rv1 tumor-bearing mice; 60 min p.i.): 0.10 ID%/g; Uptake Kidney, Mean (22Rv1 tumor-bearing mice; 60 min p.i.): 29.78 ID%/g; Uptake Liver, Mean (22Rv1 tumor-bearing mice; 60 min p.i.): 0.51 ID%/g; Uptake Lung, Mean (22Rv1 tumor-bearing mice; 60 min p.i.): 0.33 ID%/g; Uptake Muscle, Mean (22Rv1 tumor-bearing mice; 60 min p.i.): 0.15 ID%/g; Uptake Spleen, Mean (22Rv1 tumor-bearing mice; 60 min p.i.): 0.95 ID%/g; Uptake Tumor (22Rv1), Mean (22Rv1 tumor-bearing mice; 60 min p.i.): 4.27 ± 0.10 ID%/g; Uptake Tumor (22Rv1), Mean (22Rv1 tumor-bearing mice; 60 min p.i., listed as [68Ga]Ga-PSMA-617): 4.27 ID%/g; Tumor-to-kidney (T/K) ratio (22Rv1 tumor-bearing mice; [3]): 0.14 ± 0.01; Tumor-to-muscle (T/M) ratio (22Rv1 tumor-bearing mice; [3]): 28.43 ± 0.84; Clearance profile in the kidneys (22Rv1 tumor-bearing mice): continuously accumulated in the kidneys; SUVmax of tumor (22Rv1 tumors): 0.85 ± 0.14; Tumor-to-muscle ratio (micro-PET) (22Rv1 tumors; 22Rv1 tumor-bearing mice): 20.43 ± 1.06; Log p pH = 7.4 [1]: −2.54 ± 0.13; Elimination half-life [2]: 28.46 ± 1.64 min
O=C([O-])CN1CCN(CC(=O)[O-])CCN(CC(=O)NCCCCC(=O)NC(Cc2cnc3ccccc3c2)C(=O)NCCCCC(NC(=O)NC(CCC(=O)O)C(=O)O)C(=O)O)CCN(CC(=O)O)CC1.[68Ga+3] (stereo not shown) [[^68Ga]Ga-PSMA-Q-1]	3.38 ± 0.50 IA%/10^6	2.88 ID%/g	0.72 ID%/g	2.21 ID%/g	27.12 ID%/g	2.38 ID%/g	1.19 ID%/g	0.81 ID%/g	2.26 ID%/g	1.67 ID%/g	1.31 ID%/g	0.21 ID%/g	18.86 ID%/g	1.23 ID%/g	0.68 ID%/g	0.18 ID%/g	1.79 ID%/g	2.07 ID%/g	0.37 ID%/g	0.15 ID%/g	Uptake Heart, Mean (22Rv1 tumor-bearing mice; 60 min p.i.): 0.54 ID%/g; Uptake Kidney, Mean (22Rv1 tumor-bearing mice; 60 min p.i.): 5.70 ID%/g; Uptake Liver, Mean (22Rv1 tumor-bearing mice; 60 min p.i.): 0.45 ID%/g; Uptake Lung, Mean (22Rv1 tumor-bearing mice; 60 min p.i.): 0.26 ID%/g; Uptake Muscle, Mean (22Rv1 tumor-bearing mice; 60 min p.i.): 0.09 ID%/g; Uptake Spleen, Mean (22Rv1 tumor-bearing mice; 60 min p.i.): 0.45 ID%/g; Uptake Tumor (22Rv1), Mean (22Rv1 tumor-bearing mice; 60 min p.i.): 2.38 ± 0.31 ID%/g; Uptake Tumor (22Rv1), Mean (22Rv1 tumor-bearing mice; 60 min p.i., listed as [68Ga]Ga-PSMA-Q-1): 2.38 ID%/g; Clearance profile in the kidneys (22Rv1 tumor-bearing mice): washed out rapidly from the kidneys; SUVmax of tumor (22Rv1 tumors): 0.86 ± 0.09; Log p pH = 7.4 [1]: −3.09 ± 0.19; Elimination half-life [2]: 21.17 ± 2.01 min
